Target: human ORL-1 receptor (Homo sapiens, UniProt P41146)
Experiment: Agonist activity: stimulation of [35S]-GTPγS binding
Assay type: biochemical
Details: compound at 100 nM

Sequence of human ORL-1 receptor (P41146 whole entry): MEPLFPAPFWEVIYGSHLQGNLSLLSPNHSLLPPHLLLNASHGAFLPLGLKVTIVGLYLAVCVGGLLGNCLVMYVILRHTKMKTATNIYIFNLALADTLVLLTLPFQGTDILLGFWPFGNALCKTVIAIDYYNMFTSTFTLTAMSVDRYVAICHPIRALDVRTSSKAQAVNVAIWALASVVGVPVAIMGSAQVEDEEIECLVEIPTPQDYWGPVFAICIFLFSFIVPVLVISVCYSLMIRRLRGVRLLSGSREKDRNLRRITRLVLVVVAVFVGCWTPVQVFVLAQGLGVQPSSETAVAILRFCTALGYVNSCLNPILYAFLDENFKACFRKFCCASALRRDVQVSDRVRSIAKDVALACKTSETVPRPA

activation at 0.1 µM: 102%
SMILES: CNC(=O)NC1(c2ccccc2)CCN(C(c2ccccc2Cl)c2ccccc2Cl)CC1
